Experimental data from patent US10941138B2, “Quinoline and isoquinoline derivatives for treating pain and pain related conditions” (ESTEVE PHARMACEUTICALS, S.A., priority 2016, dated 2021).
Read-outs that look alike come from different tables or passages of the source.

What was measured:
[1] = target: human norepinephrine transporter (NET) (Homo sapiens (Human), UniProt P23975); experiment: Binding assay to human norepinephrine transporter (NET) ([3H]-Nisoxetin); settings: Table 2, dual compounds, human NET enriched membranes, read-out: Ki (nM) NET Hum
Method: Binding Assay to Human Norepinephrine Transporter (NET).
Human norepinephrine transporter (NET) enriched membranes (5 μg) were incubated with 5 nM of radiolabeled [3H]-Nisoxetin in assay buffer containing 50 mM Tris-HCl, 120 mM NaCl, 5 mM KCl, pH 7.4.
(§1) NSB (non specific binding) was measured by adding desipramine 10 μM. The binding of the test compound was measured at five different concentrations. After 60 min incubation at 4° C., binding reaction was terminated by filtering through Multiscreen GF/C (Millipore) presoaked in 0.5% polyethyleneimine in Vacuum Manifold Station, followed by 3 washes with ice-cold filtration buffer containing 50 mM Tris-HCl, 0.9% NaCl, pH 7.4.
Filter plates were dried at 60° C. for 1 h and 30 μl of scintillation cocktail were added to each well before radioactivity reading.
(§2) Readings were performed in a Trilux 1450 Microbeta radioactive counter (Perkin Elmer).

[2] = target: human α2δ-1 subunit of Cav2.2 calcium channel (Homo sapiens (Human), UniProt P54289); experiment: Binding assay to human α2δ-1 subunit of Cav2.2 calcium channel ([3H]-Gabapentin); settings: read-out: Ki (nM) alpha2delta Hum
Method: Binding Assay to Human α2δ-1 Subunit of Cav2.2 Calcium Channel.
Human α2δ-1 enriched membranes (2.5 μg) were incubated with 15 nM of radiolabeled [3H]-Gabapentin in assay buffer containing Hepes-KOH 10 mM, pH 7.4.
as §1, with “adding” for “adding desipramine”, “μM pregabalin.” for “μM.”, “27°” for “4°”, “Tris-HCl,” for “Tris-HCl, 0.9% NaCl,”, “7.4. Filter plates were dried at 60° C. for 1 h and 30 μl of scintillation cocktail were added to each well before radioactivity reading.” for “7.4.”
as §2

[3] = Table 1, human α2δ-1 enriched membranes
[4] = Table 2, dual compounds, human α2δ-1 enriched membranes

Sequence of human norepinephrine transporter (NET) (P23975 whole entry): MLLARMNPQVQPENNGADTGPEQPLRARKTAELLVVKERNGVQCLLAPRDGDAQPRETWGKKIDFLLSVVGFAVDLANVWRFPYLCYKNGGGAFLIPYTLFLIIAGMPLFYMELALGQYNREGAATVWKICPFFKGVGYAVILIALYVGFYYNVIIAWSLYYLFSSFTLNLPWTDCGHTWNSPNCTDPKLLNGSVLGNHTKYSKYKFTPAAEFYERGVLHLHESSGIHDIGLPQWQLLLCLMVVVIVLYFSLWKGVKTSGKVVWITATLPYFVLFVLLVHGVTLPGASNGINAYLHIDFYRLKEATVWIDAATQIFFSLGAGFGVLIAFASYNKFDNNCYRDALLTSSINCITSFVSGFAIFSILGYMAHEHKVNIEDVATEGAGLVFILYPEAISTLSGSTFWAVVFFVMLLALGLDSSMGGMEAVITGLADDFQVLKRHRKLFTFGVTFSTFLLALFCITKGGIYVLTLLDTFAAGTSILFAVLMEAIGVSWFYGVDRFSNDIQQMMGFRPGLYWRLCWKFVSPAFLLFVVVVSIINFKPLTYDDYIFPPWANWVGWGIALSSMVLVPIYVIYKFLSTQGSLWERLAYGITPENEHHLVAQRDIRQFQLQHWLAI
Sequence of human α2δ-1 subunit of Cav2.2 calcium channel (P54289 25-1103): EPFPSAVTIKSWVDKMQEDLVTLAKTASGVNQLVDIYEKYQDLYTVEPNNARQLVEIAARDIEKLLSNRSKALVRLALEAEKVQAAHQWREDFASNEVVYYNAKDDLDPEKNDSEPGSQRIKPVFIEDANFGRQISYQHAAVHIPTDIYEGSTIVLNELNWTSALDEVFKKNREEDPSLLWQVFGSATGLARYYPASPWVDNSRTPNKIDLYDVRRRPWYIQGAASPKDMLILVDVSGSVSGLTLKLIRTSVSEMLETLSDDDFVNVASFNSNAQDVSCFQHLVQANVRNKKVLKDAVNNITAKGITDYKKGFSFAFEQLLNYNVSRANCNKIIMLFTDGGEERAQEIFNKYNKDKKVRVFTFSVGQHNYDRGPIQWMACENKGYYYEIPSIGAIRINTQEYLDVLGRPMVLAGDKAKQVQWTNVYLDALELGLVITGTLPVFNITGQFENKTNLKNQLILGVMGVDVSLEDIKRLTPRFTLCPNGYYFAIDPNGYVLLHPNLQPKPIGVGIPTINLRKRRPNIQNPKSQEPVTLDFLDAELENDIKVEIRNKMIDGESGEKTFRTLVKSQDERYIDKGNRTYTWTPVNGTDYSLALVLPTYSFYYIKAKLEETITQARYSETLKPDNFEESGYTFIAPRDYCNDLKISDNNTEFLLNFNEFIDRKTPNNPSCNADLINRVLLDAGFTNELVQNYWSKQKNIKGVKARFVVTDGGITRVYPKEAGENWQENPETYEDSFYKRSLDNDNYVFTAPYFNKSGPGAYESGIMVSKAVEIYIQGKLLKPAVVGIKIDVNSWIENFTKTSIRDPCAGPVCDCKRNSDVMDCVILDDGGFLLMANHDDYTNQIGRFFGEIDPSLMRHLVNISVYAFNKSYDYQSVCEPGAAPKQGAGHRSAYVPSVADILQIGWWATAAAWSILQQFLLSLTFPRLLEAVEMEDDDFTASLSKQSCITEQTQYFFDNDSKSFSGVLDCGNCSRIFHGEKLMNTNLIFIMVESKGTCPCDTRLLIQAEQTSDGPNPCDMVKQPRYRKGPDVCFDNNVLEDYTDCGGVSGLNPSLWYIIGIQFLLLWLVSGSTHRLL

Ki [1] | Ki [2, 3] | Ki [2, 4] | SMILES
< 100 nM | 500 to 3000 nM | 500 to 3000 nM | CNCC[C@H](Oc1cccc2cnccc12)c1ccc(F)s1 [Example 50, (S)-3-(5-fluorothiophen-2-yl)-3-(isoquinolin-5-yloxy)-N-methylpropan-1-amine]
100 to 500 nM | ≥ 3000 nM | ≥ 3000 nM | NCCC(Oc1cccc2cnccc12)c1cccs1 (stereo not drawn) [Example 44, 3-(isoquinolin-5-yloxy)-3-(thiophen-2-yl)propan-1-amine]
100 to 500 nM | 100 to 500 nM | 100 to 500 nM | CNCC[C@@H](Oc1cccc2ncccc12)c1cccs1 [Example 15, (R)-N-methyl-3-(quinolin-5-yloxy)-3-(thiophen-2-yl)propan-1-amine]
< 100 nM | ≥ 3000 nM | ≥ 3000 nM | CNCCC(Oc1cccc2cccnc12)c1cccs1 (stereo not drawn) [Example 1, N-Methyl-3-(quinolin-8-yloxy)-3-(thiophen-2-yl)propan-1-amine]
100 to 500 nM | ≥ 3000 nM | ≥ 3000 nM | CNCCC(Oc1cccc2cnccc12)c1ccncc1 (stereo not drawn) [Example 25, 3-(isoquinolin-5-yloxy)-N-methyl-3-(pyridin-4-yl)propan-1-amine]
100 to 500 nM | < 100 nM | < 100 nM | CNCC[C@@H](Oc1cccc2ncccc12)c1ccc(F)s1 [Example 53, (R)-3-(5-fluorothiophen-2-yl)-N-methyl-3-(quinolin-5-yloxy)propan-1-amine]
100 to 500 nM | 100 to 500 nM | 100 to 500 nM | CNCC[C@@H](Oc1cccc2ccncc12)c1ccsc1 [Example 61, (R)-3-(isoquinolin-8-yloxy)-N-methyl-3-(thiophen-3-yl)propan-1-amine]
100 to 500 nM | 100 to 500 nM | 100 to 500 nM | CNCC[C@@H](Oc1cccc2cnccc12)c1ccsc1 [Example 60, (R)-3-(isoquinolin-5-yloxy)-N-methyl-3-(thiophen-3-yl)propan-1-amine]
100 to 500 nM | 100 to 500 nM | 100 to 500 nM | CNCC[C@H](Oc1cccc2ncccc12)c1ccsc1 [Example 67, (S)-N-methyl-3-(quinolin-5-yloxy)-3-(thiophen-3-yl)propan-1-amine]
< 100 nM | 100 to 500 nM | 100 to 500 nM | CNCCC(Oc1cccc2cnccc12)c1sccc1F (stereo not drawn) [Example 46, 3-(3-fluorothiophen-2-yl)-3-(isoquinolin-5-yloxy)-N-methylpropan-1-amine]
100 to 500 nM | 100 to 500 nM | 100 to 500 nM | CNCC[C@H](Oc1cccc2ccncc12)c1cccs1 (stereo in doubt) [Example 12, 3-(isoquinolin-8-yloxy)-N-methyl-3-(thiophen-2-yl)propan-1-amine]
< 100 nM | 100 to 500 nM | 100 to 500 nM | CNCCC(Oc1cccc2cnccc12)c1cccs1 (stereo not drawn) [Example 3, 3-(isoquinolin-5-yloxy)-N-methyl-3-(thiophen-2-yl)propan-1-amine]
500 to 1000 nM | < 100 nM | < 100 nM | CNCC[C@@H](Oc1cccc2ccnc(C)c12)c1cccs1 [Example 62, (R)-N-methyl-3-((1-methylisoquinolin-8-yl)oxy)-3-(thiophen-2-yl)propan-1-amine]
100 to 500 nM | 100 to 500 nM | 100 to 500 nM | CNCCC(Oc1cccc2ccncc12)c1sccc1F (stereo not drawn) [Example 47, 3-(3-fluorothiophen-2-yl)-3-(isoquinolin-8-yloxy)-N-methylpropan-1-amine]
